According to patent US20050154034A1, “Methods of using zonisamide as an adjunctive therapy for partial seizures” (Eisai Co., Ltd., priority 2004, published 2005):

What was measured:
rat hippocampal slices = conditions: 10-30 μg/mL; cited from earlier work
sodium channels = conditions: in vitro; cited from earlier work
[1] = tested on: GABA/benzodiazepine receptor ionophore complex; conditions: in vitro; cited from earlier work
T-type Ca2+ currents = conditions: in vitro; cited from earlier work
carbonic anhydrase = conditions: fraction of the inhibition of acetazolamide; cited from earlier work
[2] = tested on: dopaminergic and serotonergic neurotransmission; conditions: in vivo microdialysis; cited from earlier work
[3] = tested on: cultured mouse spinal cord neurons; conditions: 10-30 μg/mL, cited from earlier work
[4] = Pharmacovigilance review of rhabdomyolysis/CPK elevation in zonisamide-treated patients; assay type: in vivo, human patients (U.S. and Japan)
Source text: The pharmacovigilance data that were collected, reviewed and analyzed provided the following information in respect of the incidence of rhabdomyolysis/CPK elevation in the zonisamide-treated patient population. To date, a total of 10 cases fulfill the criteria of potential rhabdomyolysis cases. These 10 cases were reviewed in detail for evaluation of possible safety signals. All 10 cases fulfill serious criteria. Of these 10 cases, seven (7) cases were reported as rhabdomyolysis and three (3) cases were reported as CPK increase.
Of the seven (7) rhabdomyolysis cases, six (6) are verbatim cases from Dainippon and one (1) originates in the U.S. Of the seven (7) cases, three (3) were pediatric cases and four (4) were adult cases.
Of the seven (7) rhabdomyolysis cases, two (2) cases have strong confounding factors, but the possibility of zonisamide involvement cannot be completely excluded. Two (2) cases have moderate confounding factors, and zonisamide involvement may be possible.
Of the three (3) cases of CPK increase, one (1) is a verbatim report from Dainippon, and two (2) originated from the U.S. Of the three (3) cases, two are pediatric patients and one is an adult. Of these three (3) cases, two (2) recovered and the outcome of the third is unknown.
Of the three (3) cases of CPK increase, one (1) case has strong confounding factors, but the possibility of zonisamide involvement cannot be completely excluded. One (1) case has weak confounding factors, and zonisamide involvement may be possible.
Estimates of zonisamide exposure, based upon retail and mail order prescriptions, indicate that the number of unique patients taking zonisamide capsules in the U.S. is about 37,276 (total prescriptions per year/average number of prescriptions per patient per year less a calculated percentage decrease based on estimated annual dropouts) in the time between approval in 2000 and December 2002 . Hospital patient data for that period, however, is not available and is not reflected in the estimates. Estimates of patient exposure for Japan indicate that the number of unique patients taking zonisamide is about 1,185,177 for time beginning with the approval in Japan through December 2002. Japanese data includes prescription and hospital patient data. Exposure from clinical trials are not included in the U.S. or Japanese exposure estimates. Based on these statistics, the estimated number of patients exposed to zonisamide in the U.S. and Japan is 1,222,453 unique patients. This is a rather conservative estimate, assuring that the number of patients actually exposed to zonisamide is unlikely to be higher than the estimate provided. Similarly, the incidences of rhabdomyolysis estimated herein are unlikely to be higher than calculated. […] For the one (1) case reported in Japan, this amounts to an estimated incidence of 1:1,185,177 based upon estimated Japanese exposure. For the one (1) case reported in the US, this represents an estimated incidence of 1:37,276 based upon estimated US exposure. These two (2) cases of CPK increase represent a combined estimated incidence of 1:611,227 based upon the combined estimates of Japanese and US exposure. Thus, the overall estimated incidences of elevated CPK are 1:395,059 for Japanese cases, 1:18,638 for US cases and 1:244,491 for both Japanese and US cases, based on combining the reported cases of rhabdomyolysis and elevated CPK (the standard surrogate marker of muscle breakdown and typically seen in rhabdomyolysis).
Combining all the above cases of rhabdomyolysis and CPK increase, the estimated incidences of any patient who has experienced an elevated CPK (marker of muscle breakdown) are 1:400,000 for Japanese cases and 1:18,000 for US cases.

[5] = cited from earlier work

Question: For `NS(=O)(=O)Cc1noc2ccccc12` [zonisamide, 1,2-benzisoxazole-3-methanesulfonamide], which “neuronal or glial uptake of [3H]-GABA” value (rat hippocampal slices) is on record?
Answer: without affecting

Question: And the “effect on sodium channels” value (sodium channels)?
Answer: blocks sodium channels

Question: What about the “binding to GABA/benzodiazepine receptor ionophore complex” value [1] of the same molecule?
Answer: binds to the GABA/benzodiazepine receptor ionophore complex in an allosteric fashion

Question: And the “changes in chloride flux” value [1]?
Answer: does not produce changes in chloride flux

Question: And the “effect on voltage-dependent, transient inward currents (T-type Ca2+ currents)” value (T-type Ca2+ currents)?
Answer: reduces

Question: What about the “carbonic anhydrase inhibition compared to acetazolamide” value (carbonic anhydrase) of the same molecule?
Answer: 1/50

Question: And the “dopaminergic and serotonergic neurotransmission” value [2]?
Answer: facilitates

Question: And the “postsynaptic GABA or glutamate responses” value ([3]; cultured mouse spinal cord neurons)?
Answer: without affecting

Question: What about the synaptically-driven electrical activity [3] of the same molecule?
Answer: suppresses

Question: What about the “CPK increase cases recovered” value ([4]; human, in vivo) of the same molecule?
Answer: 2 cases

Question: What about the “cases fulfilling the criteria of potential rhabdomyolysis cases” value ([4]; human, in vivo) of the same molecule?
Answer: 10 cases

Question: What about the “cases of CPK increase with no or only weak confounding factors present” value ([4]; human, in vivo) of the same molecule?
Answer: 2 cases

Question: And the “cases of rhabdomyolysis with no or only weak confounding factors present” value ([4]; human, in vivo)?
Answer: 3 cases

Question: What about the “cases reported as CPK increase” value ([4]; human, in vivo) of the same molecule?
Answer: 3 cases

Question: What about the “cases reported as rhabdomyolysis” value ([4]; human, in vivo) of the same molecule?
Answer: 7 cases

Question: And the “combined estimated incidence of CPK increase” value ([4]; human, in vivo)?
Answer: 1:611,227

Question: And the “rhabdomyolysis cases not recovered” value ([4]; human, in vivo)?
Answer: 2 cases

Question: What about the rhabdomyolysis cases recovered ([4]; human, in vivo) of the same molecule?
Answer: 2 cases

Question: And the “rhabdomyolysis cases recovering at time of report” value ([4]; human, in vivo)?
Answer: 1 cases

Question: And the “time to development of CPK increase after initiation of zonisamide treatment” value ([4]; human, in vivo)?
Answer: two (2) days and six (6) weeks

Question: What about the “time to development of rhabdomyolysis after initiation of zonisamide treatment” value ([4]; human, in vivo) of the same molecule?
Answer: two (2) weeks and nine (9) years

Question: What about the “rhabdomyolysis cases with fatal outcome” value ([4]; of 7 rhabdomyolysis cases) of the same molecule?
Answer: 2 cases

Question: And the “frequency of side effects by dose” value ([5]; doses of 300 mg per day and above)?
Answer: more frequent

Question: What about the half-life ([5]; human, in vivo) of the same molecule?
Answer: long half-life

Question: What about the hepatic enzyme induction ([5]; human, in vivo) of the same molecule?
Answer: not known to be a hepatic enzyme inducer

Question: And the “time required to achieve steady state levels” value ([5]; upon reaching a stable dose or following dosage adjustment)?
Answer: up to two weeks
